Like-named read-outs stand apart in the source and are kept apart here.

Assay [1] deals with Capan-1 BRCA2 mutant human pancreatic cell line. In words: CellTiter-Glo (CTG) cell growth inhibition, Capan-1. The conditions noted are these: Capan-1 cells; for IC50: Homo sapiens, 312 h. Format: cell-based. From the text: (§1) A549 human lung carcinoma cell line, UWB1.289 BRCA1 mutant human ovarian cancer cell line, and UWB1.289+BRCA1 stable cell line derived from UWB1.289, in which wild-type BRCA1 was restored, were obtained from the American Type Culture Collection (ATCC). Capan-1 BRCA2 mutant human pancreatic cell line was obtained from the Duke Cell Culture Facility (Duke University, Durham, NC). HCC1937 BRCA1 mutant breast cancer cell line was obtained from Simon Powell (Memorial-Sloan Kettering, NY, NY). All cell lines were authenticated by short tandem repeat profiling and tested negative for mycoplasma. A549 cells were cultured in RPMI 1640 medium (Gibco), supplemented with 10% fetal bovine serum (FBS) (Corning) and 1× Antibiotic-Antimycotic (A-A) (Gibco). Capan-1 cells were grown in Iscove's Modified Dulbecco's Medium (IMDM) (Gibco), 20% FBS and 1×A-A. HCC1937 cells were grown in Iscove's Modified Dulbecco's Medium, 15% serum, and L-glutamine (2 mM). UWB1.289 and UWB1.289+BRCA1 cells were grown in 50% RPMI 1640 supplemented with 1 mM Sodium Pyruvate, 10 mM HEPES and 4500 mg/L glucose and 50% Mammary Epithelial Growth Medium (MEGM) (Clonetics) with 200 ug/ml G-418 (Gibco) and supplemented with 3% FBS and 1×A-A. All cell lines were grown at 37° C. in 5% CO2. Cell growth inhibition was determined via the CellTiter-Glo (CTG) assay (Promega). […] HCC1937 and UWB1.289 cells were treated with increasing concentrations of Compound A, niraparib, or the combination for 7 days.

Assay [2] has as its system UWB1.289+BRCA1 stable cell line (wild-type BRCA1 restored). In words: CellTiter-Glo (CTG) cell growth inhibition, UWB1.289+BRCA1. The conditions noted are these: for IC50: Homo sapiens, UWB1289, UWB1.289 + BRCA1 cells. The assay is classed as cell-based, human.
Description: as §1

The subject of assay [3] is HCC1937 BRCA1 mutant breast cancer cell line. In words: CellTiter-Glo (CTG) cell growth inhibition, HCC1937. The assay is classed as cell-based, human. To be noted: HCC1937 cells; for IC50: Homo sapiens, 168 h.
Description: as §1

Assay [4] concerns UWB1.289 BRCA1 mutant human ovarian cancer cell line. Nature of the assay: CellTiter-Glo (CTG) cell growth inhibition, UWB1.289. The assay is classed as cell-based. To be noted: UWB1.289 cells; for IC50: Homo sapiens.
Description: as §1

Assay [5] deals with A549 human lung carcinoma cell line, BRCA2 knockdown (shBRCA2). In words: Clonogenic survival assay, A549 with shBRCA2. The conditions noted are these: A549 cells with BRCA2 knockdown, Compound A at 250, 500 or 1000 nM, 8 days. Format: cell-based. From the text:
(§2) A549 human lung carcinoma cell line, UWB1.289 BRCA1 mutant human ovarian cancer cell line, and UWB1.289+BRCA1 stable cell line derived from UWB1.289, in which wild-type BRCA1 was restored, were obtained from the American Type Culture Collection (ATCC). Capan-1 BRCA2 mutant human pancreatic cell line was obtained from the Duke Cell Culture Facility (Duke University, Durham, NC). HCC1937 BRCA1 mutant breast cancer cell line was obtained from Simon Powell (Memorial-Sloan Kettering, NY, NY). All cell lines were authenticated by short tandem repeat profiling and tested negative for mycoplasma. A549 cells were cultured in RPMI 1640 medium (Gibco), supplemented with 10% fetal bovine serum (FBS) (Corning) and 1× Antibiotic-Antimycotic (A-A) (Gibco). Capan-1 cells were grown in Iscove's Modified Dulbecco's Medium (IMDM) (Gibco), 20% FBS and 1×A-A. HCC1937 cells were grown in Iscove's Modified Dulbecco's Medium, 15% serum, and L-glutamine (2 mM). […]
(§3) UWB1.289 and UWB1.289+BRCA1 cells were plated in 6-well plates at 1000 cells/well and treated with DMSO or Compound A at 250, 500 or 1000 nM for 8 days before colonies were counted. For shRNA experiments, A549 cells were treated with DMSO or Compound A at 250, 500 or 1000 nM following transduction of control shRNA or shBRCA2 for 8 days before colonies were counted. […]

In assay [6] the test system is UWB1.289 BRCA1 mutant human ovarian cancer cell line. Nature of the assay: Clonogenic survival assay, UWB1.289. The conditions noted are these: UWB1.289 cells, Compound A at 250, 500 or 1000 nM, 8 days. Format: cell-based.
Description: as §2, §3

Assay [7] has as its system UWB1.289+BRCA1 stable cell line (wild-type BRCA1 restored). In words: Clonogenic survival assay, UWB1.289+BRCA1. Format: cell-based, human. To be noted: UWB1.289+BRCA1 cells, Compound A at 250, 500 or 1000 nM, 8 days.
Description: as §2, §3

Where [8] appears, read: Compound A in combination with niraparib, 7 days.

Regarding `NC(=O)c1cccc2cn(-c3ccc([C@@H]4CCCNC4)cc3)nc12` [Niraparib, niraparib], the “shift of the dose response curve of niraparib” value in assay [1] (addition of 0.5 μM Compound A) is listed as -5 fold; in assay [2] (UWB1.289+BRCA1 cells, 0.25 μM Compound A for 3 days of a 7-day treatment with niraparib) it was 10 fold; in assay [3] (addition of 0.25 μM Compound A), 10 fold; in assay [4] (0.25 μM Compound A for 3 days of a 7-day treatment with niraparib), more than 23 fold. In addition, the IC50 in assay [1] (0.5 μM Compound A + increasing concentrations of niraparib for 13 days, read-out: IC50 + 0.5 μM Compound A (mean ± SEM) Niraparib) was 110 ± 10 nM; in assay [1] (single agent, 13 days, CTG, read-out: Single Agent IC50 (mean ± SEM) Niraparib), 550 ± 50 nM; in assay [2] (0.25 μM Compound A + niraparib for 3 days, then niraparib alone for additional 4 days, read-out: IC50 + 0.25 μM Compound A (mean ± SEM) Niraparib), 140 ± 20 nM; in assay [2] (single agent, CTG, read-out: Single Agent IC50 (mean ± SEM) Niraparib), 1400 ± 110 nM; in assay [3] (0.25 μM Compound A + increasing concentrations of niraparib for 7 days, read-out: IC50 + 0.25 μM Compound A (mean ± SEM) Niraparib) it was 380 ± 180 nM; in assay [3] (single agent, 7 days, CTG, read-out: Single Agent IC50 (mean ± SEM) Niraparib), 3700 ± 270 nM. The IC50 in assay [4] (UWB1289, 168 h, single agent, 7 days, CTG, read-out: Single Agent IC50 (mean ± SEM) Niraparib) is 330 ± 90 nM; in assay [4] (UWB1289, 0.25 μM Compound A + niraparib for 3 days, then niraparib alone for additional 4 days, read-out: IC50 + 0.25 μM Compound A (mean ± SEM) Niraparib), less than 14 nM.

Take `CC(C)NCCOc1ncc(-c2cc3c4c(cnc3cc2F)N(C)C(=O)C42CCC2)cc1NS(C)(=O)=O` [Compound A]: the clonogenic survival entry is “dose-dependent decrease in survival” in assay [5], “exhibited sensitivity to Compound A” in assay [6] and “rescued with re-expression of wild-type BRCA1” in assay [7]. In addition, the “CI50 (combination index, method of Chou)” value in assay [1] (Compound A in combination with niraparib, 13 days) amounted to 0.5; in assay [3] (setting [8]), 0.3; in assay [4] (setting [8]), 0.4. In addition, the IC50 in assay [1] (single agent, 13 days, CTG, read-out: Single Agent IC50 (mean ± SEM) Compound A) was found to be 810 ± 80 nM; in assay [2] (single agent, CTG, read-out: Single Agent IC50 (mean ± SEM) Compound A) it was 800 ± 10 nM; in assay [3] (single agent, 7 days, CTG, read-out: Single Agent IC50 (mean ± SEM) Compound A) it was 1000 ± 170 nM; in assay [4] (UWB1289, 168 h, single agent, 7 days, CTG, read-out: Single Agent IC50 (mean ± SEM) Compound A), 260 ± 100 nM.

(Values after patent US20260240834A1, “METHODS OF TREATING CANCER” (XRad Holding Cayman Limited, priority 2023, published 2026).)
